From patent US20190345138A1, “HETEROCYCLIC AMIDES AS KINASE INHIBITORS” (GlaxoSmithKline Intellectual Property Development Limited, priority 2016, published 2019)
Values joined by “and” are separate entries in the source; they are usually repeats but may differ in a detail not shown here. Equal values may be shown once.

Tests used:
[1] = test system: human monocytic leukemia U937 cells; experiment: necroptosis assay in U937 cells; assay type: cell-based; conditions: Homo sapiens, U-937, U937 cells; viability by cellular ATP (Cell Titer-Glo); read-out: pIC50, inhibited necrosis in U937 cells (converted)
Experimental: The efficacy of RIP1 inhibitors can be tested […] in vitro using a human monocytic leukemia U937 or mouse L929 fibrosarcoma cells in a necroptosis assay. As determined using the method described in S. He et al., Cell, 137(6):1100-1111 (2009) and International Patent Appln. No. PCT/IB2014/059004, now, International Patent Appln. Pub.
Viability was measured by quantitating cellular levels of ATP using the Cell Titer-Glo kit. All data are means±standard deviation of the mean.

[2] = target: T1, RIP1 kinase (Homo sapiens, UniProt Q13546); experiment: fluorescent polarization based binding assay; conditions: mean of a minimum of 2 experiments
T1 sequence (Q13546 1-375 limits assumed): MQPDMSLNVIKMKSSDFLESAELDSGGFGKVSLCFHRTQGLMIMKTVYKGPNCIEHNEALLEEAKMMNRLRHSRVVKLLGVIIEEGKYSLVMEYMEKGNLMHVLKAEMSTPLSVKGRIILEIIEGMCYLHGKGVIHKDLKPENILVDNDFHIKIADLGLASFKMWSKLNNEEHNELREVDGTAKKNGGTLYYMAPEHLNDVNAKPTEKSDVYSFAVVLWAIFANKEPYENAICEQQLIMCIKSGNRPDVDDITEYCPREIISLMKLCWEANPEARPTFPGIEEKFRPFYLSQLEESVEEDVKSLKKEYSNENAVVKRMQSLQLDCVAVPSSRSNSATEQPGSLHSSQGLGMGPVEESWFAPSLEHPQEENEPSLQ
Text: A fluorescent polarization based binding assay was used to assess the activity of the compounds of this invention, the details of which are disclosed in International Patent Appln. No. PCT/IB2014/059004, now, International Patent Appln. Pub.

Row | Structure (SMILES) | IC50 [2] | IC50 [1] [nM]
1 | CC(=O)Nc1cncc(N2CCC(C(=O)N3N=CC[C@H]3c3ccccc3)CC2)n1 [Example 64, (S)-N-(6-(4-(5-phenyl-4,5-dihydro-1H-pyrazole-1-carbonyl)piperidin-1-yl)pyrazin-2-yl)acetamide] | 1 to 31.6 nM and 1 to 10 nM | 1 to 100
2 | COc1cnc(N2CCC(C(=O)N3N=CC[C@H]3c3ccccc3)CC2)nc1 [Example 13, (S)-(1-(5-methoxypyrimidin-2-yl)piperidin-4-yl)(5-phenyl-4,5-dihydro-1H-pyrazol-1-yl)methanone] | 1 to 31.6 nM and 1 to 10 nM | 1 to 100
3 | N#Cc1cccc([C@@H]2CC=NN2C(=O)C2CCN(c3ncc4cn[nH]c4n3)CC2)c1 [Example 76, (S)-3-(1-(1-(1H-pyrazolo[3,4-d]pyrimidin-6-yl)piperidine-4-carbonyl)-4,5-dihydro-1H-pyrazol-5-yl)benzonitrile] | 1 to 31.6 nM | 1 to 100
4 | NC(=O)c1csc(N2CCC(C(=O)N3N=CC[C@H]3c3ccccc3)CC2)n1 [Example 56, (S)-2-(4-(5-phenyl-4,5-dihydro-1H-pyrazole-1-carbonyl)piperidin-1-yl)thiazole-4-carboxamide] | 1 to 31.6 nM | 1 to 100
5 | COc1cnc(N2CCC(C(=O)N3N=CCC3c3ccccc3)CC2)nc1 (racemic) [Example 7, (1-(5-methoxypyrimidin-2-yl)piperidin-4-yl)(5-phenyl-4,5-dihydro-1H-pyrazol-1-yl)methanone] | 1 to 31.6 nM | 1 to 100
6 | N#Cc1cnc(N2CCC(C(=O)N3N=CC[C@H]3c3cc(F)ccc3F)CC2)cn1 [Example 103, (S)-5-(4-(5-(2,5-difluorophenyl)-4,5-dihydro-1H-pyrazole-1-carbonyl)piperidin-1-yl)pyrazine-2-carbonitrile] | 1 to 31.6 nM and 1 to 10 nM | 1 to 100
7 | O=C(C1CCN(c2cnc3ccccc3n2)CC1)N1N=CC[C@H]1c1ccccc1 [Example 39, (S)-(5-phenyl-4,5-dihydro-1H-pyrazol-1-yl)(1-(quinoxalin-2-yl)piperidin-4-yl)methanone] | 1 to 31.6 nM and 1 to 10 nM | 1 to 100
8 | O=C1Cc2cnc(N3CCC(C(=O)N4N=CC[C@H]4c4ccccc4)CC3)nc2N1 [Example 24, (S)-2-(4-(5-phenyl-4,5-dihydro-1H-pyrazole-1-carbonyl)piperidin-1-yl)-5H-pyrrolo[2,3-d]pyrimidin-6(7H)-one] | 1 to 31.6 nM | 1 to 100
9 | N#Cc1cncc(N2CCC(C(=O)N3N=CC[C@H]3c3ccccc3)CC2)n1 [Example 47, (S)-6-(4-(5-phenyl-4,5-dihydro-1H-pyrazole-1-carbonyl)piperidin-1-yl)pyrazine-2-carbonitrile] | 1 to 31.6 nM | 1 to 100
10 | COc1cc(N2CCC(C(=O)N3N=CC[C@H]3c3cc(F)cc(F)c3)CC2)ncn1 [Example 91, (S)-(5-(3,5-difluorophenyl)-4,5-dihydro-1H-pyrazol-1-yl)(1-(6-methoxypyrimidin-4-yl)piperidin-4-yl)methanone] | 1 to 31.6 nM and 1 to 10 nM | 1 to 100
11 | COc1ccnc(N2CCC(C(=O)N3N=CC[C@H]3c3cc(F)cc(F)c3)CC2)n1 [Example 79, (S)-(5-(3,5-difluorophenyl)-4,5-dihydro-1H-pyrazol-1-yl)(1-(4-methoxypyrimidin-2-yl)piperidin-4-yl)methanone] | 1 to 31.6 nM and 1 to 10 nM | 1 to 100
12 | Nc1cncc(N2CCC(C(=O)N3N=CC[C@H]3c3ccccc3)CC2)n1 [Example 41, (S)-(1-(6-aminopyrazin-2-yl)piperidin-4-yl)(5-phenyl-4,5-dihydro-1H-pyrazol-1-yl)methanone] | 1 to 31.6 nM | 1 to 100
13 | COc1cc(N2CCC(C(=O)N3N=CC[C@H]3c3ccccc3)CC2)nc(N)n1 [Example 34, (S)-(1-(2-amino-6-methoxypyrimidin-4-yl)piperidin-4-yl)(5-phenyl-4,5-dihydro-1H-pyrazol-1-yl)methanone] | 1 to 31.6 nM | 1 to 100
14 | NC(=O)c1cnc(N2CCC(C(=O)N3N=CC[C@H]3c3cc(F)cc(F)c3)CC2)nc1 [Example 96, (S)-2-(4-(5-(3,5-difluorophenyl)-4,5-dihydro-1H-pyrazole-1-carbonyl)piperidin-1-yl)pyrimidine-5-carboxamide] | 1 to 31.6 nM | 1 to 100
15 | O=C1Cc2cnc(N3CCC(C(=O)N4N=CC[C@H]4c4cc(F)cc(F)c4)CC3)nc2N1 [Example 80, (S)-2-(4-(5-(3,5-difluorophenyl)-4,5-dihydro-1H-pyrazole-1-carbonyl)piperidin-1-yl)-5H-pyrrolo[2,3-d]pyrimidin-6(7H)-one] | 1 to 31.6 nM and 1 to 10 nM | 1 to 100
16 | N#Cc1cccc([C@@H]2CC=NN2C(=O)C2CCN(c3cc(C#N)ncn3)CC2)c1 [Example 68, (S)-6-(4-(5-(3-cyanophenyl)-4,5-dihydro-1H-pyrazole-1-carbonyl)piperidin-1-yl)pyrimidine-4-carbonitrile] | 1 to 31.6 nM | 1 to 100

Second part, led by results:

Row | IC50 [2] | Structure (SMILES) | IC50 [1] [nM]
17 | 1 to 31.6 nM | O=C(NCCO)c1ccnc(N2CCC(C(=O)N3N=CC[C@H]3c3ccccc3)CC2)n1 [Example 126, (S)-N-(2-hydroxyethyl)-2-(4-(5-phenyl-4,5-dihydro-1H-pyrazole-1-carbonyl)piperidin-1-yl)pyrimidine-4-carboxamide] | 1 to 100
18 | 1 to 31.6 nM and 1 to 10 nM | COc1cc(N2CCC(C(=O)N3N=CC[C@H]3c3cc(F)ccc3F)CC2)ncn1 [Example 105, (S)-(5-(2,5-difluorophenyl)-4,5-dihydro-1H-pyrazol-1-yl)(1-(6-methoxypyrimidin-4-yl)piperidin-4-yl)methanone] | 1 to 100
19 | 1 to 31.6 nM and 1 to 10 nM | N#Cc1coc(N2CCC(C(=O)N3N=CC[C@H]3c3ccccc3)CC2)n1 [Example 137, (S)-2-(4-(5-phenyl-4,5-dihydro-2H-pyrazole-1-carbonyl)piperidin-1-yl)oxazole-4-carbonitrile] | 1 to 100
20 | 1 to 31.6 nM | NC(=O)c1nc(N2CCC(C(=O)N3N=CC[C@H]3c3cncc(F)c3)CC2)ncc1F [Example 161, (S)-5-fluoro-2-(4-(5-(5-fluoropyridin-3-yl)-4,5-dihydro-1H-pyrazole-1-carbonyl)piperidin-1-yl)pyrimidine-4-carboxamide] | 1 to 100
21 | 1 to 31.6 nM | O=C(C1CCN(c2nccc(CO)n2)CC1)N1N=CC[C@H]1c1ccccc1 [Example 130, (S)-(1-(4-(hydroxymethyl)pyrimidin-2-yl)piperidin-4-yl)(5-phenyl-4,5-dihydro-1H-pyrazol-1-yl)methanone] | 1 to 100
22 | 1 to 31.6 nM and 1 to 10 nM | O=C(C1CCN(c2ncc(F)c(OCCN3CCOCC3)n2)CC1)N1N=CC[C@H]1c1ccccc1 [Example 127, (S)-(1-(5-fluoro-4-(2-morpholinoethoxy)pyrimidin-2-yl)piperidin-4-yl)(5-phenyl-4,5-dihydro-1H-pyrazol-1-yl)methanone] | 1 to 100
23 | 1 to 31.6 nM | NC(=O)c1nc(N2CCC(C(=O)N3N=CC[C@H]3c3cncc(F)c3)CC2)ncc1Cl [Example 124, (S)-5-chloro-2-(4-(5-(5-fluoropyridin-3-yl)-4,5-dihydro-1H-pyrazole-1-carbonyl)piperidin-1-yl)pyrimidine-4-carboxamide] | 1 to 100
24 | 1 to 31.6 nM | C#Cc1cc(N2CCC(C(=O)N3N=CC[C@H]3c3cccc(C#N)c3)CC2)ncn1 [Example 158, (S)-3-(1-(1-(6-ethynylpyrimidin-4-yl)piperidine-4-carbonyl)-4,5-dihydro-1H-pyrazol-5-yl)benzonitrile] | 1 to 100
25 | 1 to 31.6 nM | Nc1nc(N2CCC(C(=O)N3N=CC[C@H]3c3cncc(F)c3)CC2)ncc1F [Example 112, (S)-(1-(4-amino-5-fluoropyrimidin-2-yl)piperidin-4-yl)(5-(5-fluoropyridin-3-yl)-4,5-dihydro-1H-pyrazol-1-yl)methanone] | 1 to 100
26 | 1 to 31.6 nM | O=C(NC1CCNCC1)c1ccnc(N2CCC(C(=O)N3N=CC[C@H]3c3ccccc3)CC2)n1 [Example 147, (S)-2-(4-(5-phenyl-4,5-dihydro-1H-pyrazole-1-carbonyl)piperidin-1-yl)-N-(piperidin-4-yl)pyrimidine-4-carboxamide] | 1 to 100
27 | 1 to 31.6 nM | NC(=O)c1coc(N2CCC(C(=O)N3N=CC[C@H]3c3cc(F)cc(F)c3)CC2)n1 [Example 134, (S)-2-(4-(5-(3,5-difluorophenyl)-4,5-dihydro-1H-pyrazole-1-carbonyl)piperidin-1-yl)oxazole-4-carboxamide] | 1 to 100
28 | 1 to 31.6 nM | O=C(C1CCN(c2ccc3nccn3n2)CC1)N1N=CC[C@H]1c1cncc(F)c1 [Example 117, (S)-(5-(5-fluoropyridin-3-yl)-4,5-dihydro-1H-pyrazol-1-yl)(1-(imidazo[1,2-b]pyridazin-6-yl)piperidin-4-yl)methanone] | 1 to 100
29 | 1 to 31.6 nM | NC(=O)c1cnc(N2CCC(C(=O)N3N=CC[C@H]3c3cc(F)ccc3F)CC2)nc1 [Example 123, (S)-2-(4-(5-(2,5-difluorophenyl)-4,5-dihydro-1H-pyrazole-1-carbonyl)piperidin-1-yl)pyrimidine-5-carboxamide] | 1 to 100
